Biological target: T1, Ileal Bile Acid Transporter Human (Homo sapiens, UniProt Q12908)
T1 construct: expressed in transfected cells; host or cells: HEK
T1 sequence (Q12908 1-348): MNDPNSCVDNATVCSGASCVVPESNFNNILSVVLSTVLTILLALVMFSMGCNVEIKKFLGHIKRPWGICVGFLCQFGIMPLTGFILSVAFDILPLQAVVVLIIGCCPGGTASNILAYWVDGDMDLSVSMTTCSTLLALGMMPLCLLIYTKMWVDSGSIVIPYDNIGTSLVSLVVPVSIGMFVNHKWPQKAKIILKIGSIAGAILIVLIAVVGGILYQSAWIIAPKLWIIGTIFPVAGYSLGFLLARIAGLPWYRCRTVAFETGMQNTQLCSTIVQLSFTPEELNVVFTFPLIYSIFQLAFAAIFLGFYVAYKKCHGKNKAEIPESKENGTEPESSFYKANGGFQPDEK
Assay: ISBT Hu HEK Uptake SPA: Human HEK Glycocholic acid Uptake Radiometric SPA
Assay type: cell-based
Settings: human IBAT in HEK cells
Experimental: ISBT Hu HEK Uptake SPA 13203 IBAT HUM Ileal Bile Acid Transporter Human HEK Glycocholic acid Uptake Radiometric—SPA Inhibitor IC50 Mean IC50 (nM) was determined for the compounds of examples 1-14

SMILES	IC50 [nM]
CCCCC1(CCCC)CN(c2ccccc2)c2cc(SC)c(OCC(=O)N[C@@H](C(=O)NCC(=O)O)c3ccccc3)cc2S(=O)(=O)N1 [Example 1, 1,1-Dioxo-3,3-dibutyl-5-phenyl-7-methylthio-8-(N-{(R)-α-[N-(carboxymethyl)carbamoyl]benzyl}carbamovlmethoxv)-2,3,4,5-tetrahvdro-1. 2. 5-benzothiadiazepine]	0.45
CCCCC1(CCCC)CN(c2ccccc2)c2cc(SC)c(OCC(=O)N[C@@H](C(=O)N[C@H](C(=O)O)[C@@H](C)O)c3ccc(O)cc3)cc2S(=O)(=O)N1 [Example 8, 1,1-Dioxo-3,3-dibutyl-5-phenyl-7-methylthio-8-(N-{(R)-α-[N-((S)-1-carboxy-2-(R)-hydroxypropyl)carbamoyl]-4-hydroxybenzyl}carbamoylmethoxy)-2,3,4,5-tetrahydro-1,2,5-benzothiadiazepine]	0.11
CCCCC1(CCCC)CN(c2ccccc2)c2cc(SC)c(OCC(=O)N[C@@H](C(=O)N[C@@H](C)C(=O)O)c3ccc(O)cc3)cc2S(=O)(=O)N1 [Example 12]	0.3
CCCCC1(CCCC)CN(c2ccccc2)c2cc(SC)c(OCC(=O)N[C@@H](C(=O)N[C@@H](C)C(=O)O)c3ccccc3)cc2S(=O)(=O)N1 [Example 10, 1,1-Dioxo-3,3-dibutyl-5-phenyl-7-methylthio-8-(N-{(R)-α-[N-((S)-1-carboxyethyl)carbamoyl]benzyl}carbamoylmethoxy)-2,3,4,5-tetrahydro-1,2,5-benzothiadiazepine]	0.2
CCCCC1(CCCC)CN(c2ccccc2)c2cc(SC)c(OCC(=O)N[C@@H](C(=O)N[C@@H](CC)C(=O)O)c3ccc(O)cc3)cc2S(=O)(=O)N1 [Example 5, 1,1-Dioxo-3,3-dibutyl-5-phenyl-7-methylthio-8-(N-{(R)-α-[N-((S)-1-carboxypropyl)carbamoyl]-4-hydroxybenzyl}carbamoylmethoxy)-2,3,4,5-tetrahydro-1,2,5-benzothiadiazepine]	0.16
CCCCC1(CCCC)CN(c2ccccc2)c2cc(SC)c(OCC(=O)N[C@@H](C(=O)N[C@H](C(=O)O)C(C)C)c3ccccc3)cc2S(=O)(=O)N1 [Example 7, 1,1-Dioxo-3,3-dibutyl-5-phenyl-7-methylthio-8-(N-{(R)-α-[N-((S)-1-carboxy-2-methylpropyl)carbamoyl]benzyl}carbamoylmethoxy)-2,3,4,5-tetrahydro-1,2,5-benzothiadiazepine]	0.36
CCCCC1(CCCC)CN(c2ccccc2)c2cc(SC)c(OCC(=O)N[C@@H](C(=O)N[C@@H](C)C(=O)O)c3ccccc3)cc2S(=O)(=O)C1 [Example 2, 1,1-Dioxo-3,3-dibutyl-5-phenyl-7-methylthio-8-(N-{(R)-α-[N′-((S)-1-carboxyethyl)carbamoyl]benzyl}carbamoylmethoxy)-2,3,4,5-tetrahydro-1,5-benzothiazepine]	0.39
CCCCC1(CCCC)CN(c2ccccc2)c2cc(SC)c(OCC(=O)N[C@@H](C(=O)N[C@@H](CSC)C(=O)O)c3ccccc3)cc2S(=O)(=O)N1 [Example 4, 1,1-Dioxo-3,3-dibutyl-5-phenyl-7-methylthio-8-(N-{(R)-α-[N-((R)-1-carboxy-2-methylthioethyl)carbamoyl]benzyl}carbamoylmethoxy)-2,3,4,5-tetrahydro-1,2,5-benzothiadiazepine]	0.35
CCCCC1(CCCC)CN(c2ccccc2)c2cc(SC)c(OCC(=O)N[C@@H](C(=O)N[C@@H](CC)C(=O)O)c3ccccc3)cc2S(=O)(=O)N1 [Example 3, 1,1-Dioxo-3,3-dibutyl-5-phenyl-7-methylthio-8-(N-{(R)-α-[N-((S)-1-carboxypropyl)carbamoyl]benzyl}carbamoylmethoxy)-2,3,4,5-tetrahydro-1,2,5-benzothiadiazepine]	0.18
